The record followed here is ChEMBL document CHEMBL2073976, “Circumvention of multidrug resistance by a newly synthesized quinoline derivative, MS-073” (Cancer Res, 1991).

The data set concerns the target ATP-dependent translocase ABCB1 (Homo sapiens, UniProt P08183). The experiment in a line: TP_TRANSPORTER: increase in VCR intracellular accumulation (VCR: 0.03 uM, MS-073: 3 uM) in K562/ADM cells. In kind it is functional, cell-based. The conditions noted are these: k562/adr.

Chain of ATP-dependent translocase ABCB1 (P08183 whole entry): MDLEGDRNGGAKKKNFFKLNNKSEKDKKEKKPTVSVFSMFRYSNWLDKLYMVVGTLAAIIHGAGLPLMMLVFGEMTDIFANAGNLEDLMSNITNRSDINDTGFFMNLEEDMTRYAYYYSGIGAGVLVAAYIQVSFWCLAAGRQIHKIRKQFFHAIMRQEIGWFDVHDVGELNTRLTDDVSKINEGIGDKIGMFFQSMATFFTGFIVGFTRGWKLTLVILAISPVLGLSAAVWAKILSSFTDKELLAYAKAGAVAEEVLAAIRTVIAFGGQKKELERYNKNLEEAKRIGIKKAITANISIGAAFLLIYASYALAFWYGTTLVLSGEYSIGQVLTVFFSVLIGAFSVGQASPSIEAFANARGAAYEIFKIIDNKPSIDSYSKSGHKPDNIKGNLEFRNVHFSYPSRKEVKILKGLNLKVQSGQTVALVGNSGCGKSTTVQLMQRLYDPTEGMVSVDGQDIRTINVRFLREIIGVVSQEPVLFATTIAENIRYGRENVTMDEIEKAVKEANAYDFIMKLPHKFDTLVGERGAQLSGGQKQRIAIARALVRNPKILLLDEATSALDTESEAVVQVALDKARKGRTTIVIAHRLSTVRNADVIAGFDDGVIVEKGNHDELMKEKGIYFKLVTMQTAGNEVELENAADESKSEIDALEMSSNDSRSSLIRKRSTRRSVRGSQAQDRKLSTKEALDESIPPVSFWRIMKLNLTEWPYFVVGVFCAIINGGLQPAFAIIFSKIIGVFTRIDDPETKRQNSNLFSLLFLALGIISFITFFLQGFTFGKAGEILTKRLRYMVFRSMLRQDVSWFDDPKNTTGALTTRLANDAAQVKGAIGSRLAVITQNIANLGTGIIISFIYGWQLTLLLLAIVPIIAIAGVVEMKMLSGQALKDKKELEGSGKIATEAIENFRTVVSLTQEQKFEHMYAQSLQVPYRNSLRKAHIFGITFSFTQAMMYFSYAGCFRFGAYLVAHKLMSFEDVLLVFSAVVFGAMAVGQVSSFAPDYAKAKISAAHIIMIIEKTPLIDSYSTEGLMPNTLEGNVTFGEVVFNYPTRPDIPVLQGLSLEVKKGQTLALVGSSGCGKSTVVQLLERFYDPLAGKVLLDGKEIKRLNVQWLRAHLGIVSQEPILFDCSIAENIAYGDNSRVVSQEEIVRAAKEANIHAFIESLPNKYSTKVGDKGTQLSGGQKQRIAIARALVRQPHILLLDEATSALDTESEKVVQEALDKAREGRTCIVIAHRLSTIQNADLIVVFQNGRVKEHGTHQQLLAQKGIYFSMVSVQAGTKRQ

For the compound `OC(COc1cccc2ncccc12)CN1CCN(C2c3ccccc3CCc3ccccc32)CC1` (stereo unspecified), the Activity entry was “inhibitor [+]”.
